Results on one compound are retold here after ChEMBL document CHEMBL4020706, “Design, synthesis and biological evaluation of novel hydroxamates and 2-aminobenzamides as potent histone deacetylase inhibitors and antitumor agents” (Eur J Med Chem, 2017).

Assay [1] deals with A549. Nature of the assay: Induction of apoptosis in human A549 cells after 48 hrs by Alexa Fluor 488 Annexin/propidium iodide staining-based flow cytometry. The format is functional, cell-based. In general terms: In flow cytometry, cells or beads pass a laser one at a time.
Assay [2] relates to A549. Nature of the assay: Antiproliferative activity against human A549 cells after 72 hrs by CCK-8 reagent based assay. The format is functional, cell-based. The note with it: A549, 72 h. For orientation: Tetrazolium assays rely on reduction of a dye to a coloured formazan, in cell work by metabolically active cells.
Assay [3] concerns A549. The assay is described as follows: Induction of apoptosis in human A549 cells assessed as viable cells at 4 umol/L after 48 hrs by Alexa Fluor 488 Annexin/propidium iodide staining-based flow cytometry (reference value: 92.79%). The note with it: A549, 48 h, read-out: Activity. The format is functional.
The subject of assay [4] is A549. The assay is described as follows: Induction of apoptosis in human A549 cells assessed as late apoptotic cells at 4 umol/L after 48 hrs by Alexa Fluor 488 Annexin/propidium iodide staining-based flow cytometry (reference value: 2.93%). In kind it is functional.
Another assay concerns MGC-803. The assay is described as follows: Antiproliferative activity against human MGC803 cells after 72 hrs by CCK-8 reagent based assay. The format is functional, cell-based. Particulars: MGC-803, 72 h.
The subject of the next assay is HepG2. The assay is described as follows: Antiproliferative activity against human HepG2 cells after 72 hrs by CCK-8 reagent based assay. In kind it is functional, cell-based. Particulars: HepG2, 72 h.
In assay [5] the test system is A549. Nature of the assay: Cell cycle arrest in human A549 cells assessed as accumulation at S phase at 16 umol/L after 48 hrs by propidium iodide staining-based flow cytometry (reference value: 15.13%). In kind it is functional.
The subject of assay [6] is A549. Nature of the assay: Induction of apoptosis in human A549 cells assessed as early apoptotic cells at 4 umol/L after 48 hrs by Alexa Fluor 488 Annexin/propidium iodide staining-based flow cytometry (reference value: 3.41%). The format is functional.
Assay [7] has as its system A549. The assay is described as follows: Induction of apoptosis in human A549 cells assessed as early apoptotic cells at 8 umol/L after 48 hrs by Alexa Fluor 488 Annexin/propidium iodide staining-based flow cytometry (reference value: 3.41%). In kind it is functional.
For the next assay, the target named is Histone deacetylase 2 (Homo sapiens, UniProt Q92769). The assay is described as follows: Inhibition of human recombinant HDAC2 using Fluor de Lys green as substrate by fluorometric assay.
Assay [8] deals with A549. Nature of the assay: Cell cycle arrest in human A549 cells assessed as accumulation at G0/G1 phase at 2 umol/L after 48 hrs by propidium iodide staining-based flow cytometry (reference value: 75.77%). In kind it is functional.
A further assay concerns the target Histone deacetylase 1 (Homo sapiens, UniProt Q13547). The assay is described as follows: Inhibition of human recombinant HDAC1 using Fluor de Lys as substrate by fluorometric assay.
Assay [9] relates to A549. Nature of the assay: Cell cycle arrest in human A549 cells assessed as accumulation at S phase at 2 umol/L after 48 hrs by propidium iodide staining-based flow cytometry (reference value: 15.13%). The format is functional.
In the next assay the test system is HCT-116. Nature of the assay: Antiproliferative activity against human HCT116 cells after 72 hrs by CCK-8 reagent based assay. Particulars: HCT-116, 72 h. In kind it is functional, cell-based.
For assay [10], the system named is A549. The assay is described as follows: Cell cycle arrest in human A549 cells assessed as accumulation at G2/M phase at 16 umol/L after 48 hrs by propidium iodide staining-based flow cytometry (reference value: 9.1%). The format is functional. The note with it: at 16 µM.
The target in assay [11] is T1, Protein deacetylase HDAC6 (Homo sapiens, UniProt Q9UBN7).
T1 sequence (Q9UBN7 whole entry): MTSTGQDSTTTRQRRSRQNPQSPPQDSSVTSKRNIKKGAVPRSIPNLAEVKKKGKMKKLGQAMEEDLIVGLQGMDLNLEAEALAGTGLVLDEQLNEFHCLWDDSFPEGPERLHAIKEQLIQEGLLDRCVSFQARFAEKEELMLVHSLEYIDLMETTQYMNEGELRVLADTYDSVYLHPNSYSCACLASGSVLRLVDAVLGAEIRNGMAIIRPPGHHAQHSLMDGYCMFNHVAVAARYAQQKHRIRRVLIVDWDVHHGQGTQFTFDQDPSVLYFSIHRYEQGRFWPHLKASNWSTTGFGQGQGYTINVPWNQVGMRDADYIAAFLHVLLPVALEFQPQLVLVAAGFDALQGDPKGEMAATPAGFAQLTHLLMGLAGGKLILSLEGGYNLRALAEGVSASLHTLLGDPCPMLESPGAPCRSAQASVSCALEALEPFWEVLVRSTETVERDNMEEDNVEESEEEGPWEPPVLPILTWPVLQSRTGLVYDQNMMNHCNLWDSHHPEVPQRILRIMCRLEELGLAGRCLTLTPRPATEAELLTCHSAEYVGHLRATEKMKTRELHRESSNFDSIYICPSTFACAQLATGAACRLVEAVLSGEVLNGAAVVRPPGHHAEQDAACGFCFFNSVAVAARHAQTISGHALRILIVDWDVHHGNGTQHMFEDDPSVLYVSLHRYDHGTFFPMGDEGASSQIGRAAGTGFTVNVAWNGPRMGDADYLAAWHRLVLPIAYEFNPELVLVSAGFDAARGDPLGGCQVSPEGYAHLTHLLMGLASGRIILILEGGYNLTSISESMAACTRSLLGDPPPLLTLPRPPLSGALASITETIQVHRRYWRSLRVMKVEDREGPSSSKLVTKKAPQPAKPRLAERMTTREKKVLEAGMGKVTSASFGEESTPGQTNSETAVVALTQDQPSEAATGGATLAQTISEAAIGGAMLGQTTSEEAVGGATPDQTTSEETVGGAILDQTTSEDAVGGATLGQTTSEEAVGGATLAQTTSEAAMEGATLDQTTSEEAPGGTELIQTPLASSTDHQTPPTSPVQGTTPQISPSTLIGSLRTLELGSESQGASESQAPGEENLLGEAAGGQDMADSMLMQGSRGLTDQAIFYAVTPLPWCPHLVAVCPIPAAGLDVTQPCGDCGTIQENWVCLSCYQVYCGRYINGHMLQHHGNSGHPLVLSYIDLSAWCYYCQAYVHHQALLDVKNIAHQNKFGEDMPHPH
Nature of the assay: Inhibition of human recombinant HDAC6 using Fluor de Lys as substrate after 60 mins by fluorometric assay.

Assay [12] has as its system A549. The assay is described as follows: Cell cycle arrest in human A549 cells assessed as accumulation at G0/G1 phase at 16 umol/L after 48 hrs by propidium iodide staining-based flow cytometry (reference value: 75.77%). The format is functional.
For assay [13], the system named is A549. Nature of the assay: Induction of apoptosis in human A549 cells assessed as viable cells at 8 umol/L after 48 hrs by Alexa Fluor 488 Annexin/propidium iodide staining-based flow cytometry (reference value: 92.79%). In kind it is functional. The note with it: A549, 48 h, read-out: Activity.
For assay [14], the system named is A549. The assay is described as follows: Cell cycle arrest in human A549 cells assessed as accumulation at G2/M phase at 2 umol/L after 48 hrs by propidium iodide staining-based flow cytometry (reference value: 9.1%). Particulars: at 2 µM. In kind it is functional.
The test system of assay [15] is A549. The assay is described as follows: Inhibition of colony formation in human A549 cells after 7 days by crystal violet staining based assay. In kind it is functional, cell-based.
The subject of assay [16] is A549. The assay is described as follows: Induction of apoptosis in human A549 cells assessed as necrotic cells at 8 umol/L after 48 hrs by Alexa Fluor 488 Annexin/propidium iodide staining-based flow cytometry (reference value: 0.87%). In kind it is functional.
Assay [17] deals with A549. Nature of the assay: Induction of apoptosis in human A549 cells assessed as necrotic cells at 4 umol/L after 48 hrs by Alexa Fluor 488 Annexin/propidium iodide staining-based flow cytometry (reference value: 0.87%). In kind it is functional.
Assay [18] deals with A549. Nature of the assay: Induction of apoptosis in human A549 cells assessed as late apoptotic cells at 8 umol/L after 48 hrs by Alexa Fluor 488 Annexin/propidium iodide staining-based flow cytometry (reference value: 2.93%). The format is functional.
For assay [19], the system named is A549. The assay is described as follows: Cell cycle arrest in human A549 cells assessed as accumulation at G2/M phase after 48 hrs by propidium iodide staining-based flow cytometry. The format is functional.

Some results are limits rather than exact numbers.

The IC50 is the concentration at which inhibition is half-maximal.

Chain of Histone deacetylase 1 (Q13547 whole entry): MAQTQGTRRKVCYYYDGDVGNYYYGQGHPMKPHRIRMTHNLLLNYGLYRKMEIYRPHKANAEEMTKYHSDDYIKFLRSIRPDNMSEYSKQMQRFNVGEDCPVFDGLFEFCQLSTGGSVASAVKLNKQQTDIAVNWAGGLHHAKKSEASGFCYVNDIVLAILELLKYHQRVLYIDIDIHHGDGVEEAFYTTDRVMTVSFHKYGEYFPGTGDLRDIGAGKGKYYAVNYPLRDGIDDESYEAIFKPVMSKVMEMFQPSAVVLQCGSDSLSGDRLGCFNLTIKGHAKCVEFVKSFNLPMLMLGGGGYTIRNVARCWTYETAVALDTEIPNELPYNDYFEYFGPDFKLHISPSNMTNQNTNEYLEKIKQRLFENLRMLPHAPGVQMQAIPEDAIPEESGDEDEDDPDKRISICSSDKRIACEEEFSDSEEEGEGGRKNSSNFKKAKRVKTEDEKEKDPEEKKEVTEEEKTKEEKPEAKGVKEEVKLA
Chain of Histone deacetylase 2 (Q92769 whole entry): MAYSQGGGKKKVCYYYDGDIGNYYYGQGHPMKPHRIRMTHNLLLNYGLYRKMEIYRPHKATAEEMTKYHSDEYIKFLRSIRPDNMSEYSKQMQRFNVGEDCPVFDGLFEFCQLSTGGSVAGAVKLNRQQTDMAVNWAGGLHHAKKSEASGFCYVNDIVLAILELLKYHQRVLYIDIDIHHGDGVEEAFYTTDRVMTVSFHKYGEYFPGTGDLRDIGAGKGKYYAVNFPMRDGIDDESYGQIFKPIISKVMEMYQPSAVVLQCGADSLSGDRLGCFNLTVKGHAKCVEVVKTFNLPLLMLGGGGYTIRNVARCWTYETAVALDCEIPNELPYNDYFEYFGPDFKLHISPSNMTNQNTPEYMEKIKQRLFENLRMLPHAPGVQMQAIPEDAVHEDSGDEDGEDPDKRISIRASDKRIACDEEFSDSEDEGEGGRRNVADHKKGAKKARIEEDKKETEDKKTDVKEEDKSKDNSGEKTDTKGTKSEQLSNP

In the case of `Nc1ccccc1NC(=O)c1ccc(COc2ccc(F)cc2)cc1`, the Activity entry is “Dose-dependent effect” with A549 [1]; 10.93% with A549 [4]; 8.23% with A549 [5]; 14.37% with A549 [6]; 35.52% with A549 [7]; 84.93% in the assay with A549 [8]. Moreover, the Activity was 6.1% in the assay with A549 [9]; 37.74% with A549 [10]; 54.03% with A549 [12]; 8.97% with A549 [14]; 6.34% with A549 [16]; 3.74% in the assay with A549 [17]. Besides, the Activity in the assay on A549 [18] is 28.88%; with A549 [19], “Dose-dependent effect”. For the same compound, the IC50 in the assay with A549 [2] was 5.37 µM; in the assay with MGC-803 it was 4.97 µM; in the assay with HepG2, 3.84 µM; at Histone deacetylase 2, 0.57 µM; on Histone deacetylase 1, 1.27 µM; in the assay on HCT-116, 3.86 µM. The IC50 in assay [11] was more than 40 µM. In the assay on A549 [3], the viability at 4 µM came to 70.9%. Besides, the viability at 8 µM with A549 [13] came to 29.7%. The inhibition entry with A549 [15] is “Dose-dependent effect”.
